# Laboratory results as given in PubChem BioAssay AID1259407 (Chemical Carcinogenesis Research Information System (CCRIS), 2018).
# Active and inactive are the calls of the source. The rule behind the calls is not given here.
# Tested on: CCRIS mutagenicity, Ames/micronucleus/aberration tests
# Assay: CCRIS mutagenicity studies
# [1] = Test System: AMES SALMONELLA TYPHIMURIUM, Strain/Indicator: TA97, Metabolic Activation: NONE, Method: PREINCUBATION
# [2] = Test System: AMES SALMONELLA TYPHIMURIUM, Strain/Indicator: TA98, Metabolic Activation: HAMSTER, LIVER, S-9, AROCLOR 1254 (10%), Method: PREINCUBATION
# [3] = Test System: AMES SALMONELLA TYPHIMURIUM, Strain/Indicator: TA98, Metabolic Activation: HAMSTER, LIVER, S-9, AROCLOR 1254 (30%), Method: PREINCUBATION
# [4] = Test System: AMES SALMONELLA TYPHIMURIUM, Strain/Indicator: TA98, Metabolic Activation: NONE, Method: PREINCUBATION
# [5] = Test System: AMES SALMONELLA TYPHIMURIUM, Strain/Indicator: TA98, Metabolic Activation: RAT, LIVER, S-9, AROCLOR 1254 (10%), Method: PREINCUBATION
# [6] = Test System: AMES SALMONELLA TYPHIMURIUM, Strain/Indicator: TA98, Metabolic Activation: RAT, LIVER, S-9, AROCLOR 1254 (30%), Method: PREINCUBATION
# [7] = Test System: AMES SALMONELLA TYPHIMURIUM, Strain/Indicator: TA100, Metabolic Activation: HAMSTER, LIVER, S-9, AROCLOR 1254 (10%), Method: PREINCUBATION
# [8] = Test System: AMES SALMONELLA TYPHIMURIUM, Strain/Indicator: TA100, Metabolic Activation: HAMSTER, LIVER, S-9, AROCLOR 1254 (30%), Method: PREINCUBATION
# [9] = Test System: AMES SALMONELLA TYPHIMURIUM, Strain/Indicator: TA100, Metabolic Activation: NONE, Method: PREINCUBATION
# [10] = Test System: AMES SALMONELLA TYPHIMURIUM, Strain/Indicator: TA100, Metabolic Activation: RAT, LIVER, S-9, AROCLOR 1254 (10%), Method: PREINCUBATION
# [11] = Test System: AMES SALMONELLA TYPHIMURIUM, Strain/Indicator: TA100, Metabolic Activation: RAT, LIVER, S-9, AROCLOR 1254 (30%), Method: PREINCUBATION
# [12] = Test System: AMES SALMONELLA TYPHIMURIUM, Strain/Indicator: TA1535, Metabolic Activation: HAMSTER, LIVER, S-9, AROCLOR 1254 (10%), Method: PREINCUBATION
# [13] = Test System: AMES SALMONELLA TYPHIMURIUM, Strain/Indicator: TA1535, Metabolic Activation: HAMSTER, LIVER, S-9, AROCLOR 1254 (30%), Method: PREINCUBATION
# [14] = Test System: AMES SALMONELLA TYPHIMURIUM, Strain/Indicator: TA1535, Metabolic Activation: NONE, Method: PREINCUBATION
# [15] = Test System: AMES SALMONELLA TYPHIMURIUM, Strain/Indicator: TA1535, Metabolic Activation: RAT, LIVER, S-9, AROCLOR 1254 (10%), Method: PREINCUBATION
# [16] = Test System: AMES SALMONELLA TYPHIMURIUM, Strain/Indicator: TA1535, Metabolic Activation: RAT, LIVER, S-9, AROCLOR 1254 (30%), Method: PREINCUBATION
# [17] = Test System: AMES SALMONELLA TYPHIMURIUM, Strain/Indicator: TA1537, Metabolic Activation: NONE, Method: PREINCUBATION
# [18] = Test System: AMES SALMONELLA TYPHIMURIUM, Strain/Indicator: TA1537, Metabolic Activation: NONE, Method: STANDARD PLATE
SMILES,mutagenic call [1],mutagenic call [2],mutagenic call [3],mutagenic call [4],mutagenic call [5],mutagenic call [6],mutagenic call [7],mutagenic call [8],mutagenic call [9],mutagenic call [10],mutagenic call [11],mutagenic call [12],mutagenic call [13],mutagenic call [14],mutagenic call [15],mutagenic call [16],mutagenic call [17],mutagenic call [18],further results
CC(CN1c2ccccc2Sc2ccccc21)N(C)C (stereo not given),inactive; negative,inactive; negative,inactive; negative,inactive; negative,inactive; negative,inactive; negative,inactive; negative,inactive; negative,inactive; negative,inactive; negative,inactive; negative,inactive; negative,inactive; negative,inactive; negative,inactive; negative,inactive; negative,inactive; negative,–,"mutagenic call (End Point: IN VITRO CHROMOSOMAL ABERRATIONS, Test System: CHINESE HAMSTER OVARY CELLS, Metabolic Activation: NONE): inactive; negative; mutagenic call (End Point: IN VITRO CHROMOSOMAL ABERRATIONS, Test System: CHINESE HAMSTER OVARY CELLS, Metabolic Activation: RAT, LIVER, S-9, AROCLOR 1254): inactive; negative; mutagenic call (Test System: AMES SALMONELLA TYPHIMURIUM, Strain/Indicator: TA97, Metabolic Activation: HAMSTER, LIVER, S-9, AROCLOR 1254 (10 OR 30%), Method: PREINCUBATION): inactive; negative; mutagenic call (Test System: AMES SALMONELLA TYPHIMURIUM, Strain/Indicator: TA97, Metabolic Activation: RAT, LIVER, S-9, AROCLOR 1254 (10 OR 30%), Method: PREINCUBATION): inactive; negative; mutagenic call (Test System: AMES SALMONELLA TYPHIMURIUM, Strain/Indicator: TA98, Metabolic Activation: NONE, Method: SPOT TEST): inactive; negative; mutagenic call (Test System: AMES SALMONELLA TYPHIMURIUM, Strain/Indicator: TA1537, Metabolic Activation: HAMSTER, LIVER, S-9, AROCLOR 1254 (10%), Method: PREINCUBATION): inactive; negative; mutagenic call (Test System: AMES SALMONELLA TYPHIMURIUM, Strain/Indicator: TA1537, Metabolic Activation: RAT, LIVER, S-9, AROCLOR 1254 (10%), Method: PREINCUBATION): inactive; negative; mutagenic call (Test System: CHINESE HAMSTER V-79, Strain/Indicator: V-79/6-THIOGUANINE, Metabolic Activation: NONE): inactive; negative; mutagenic call (Test System: CHINESE HAMSTER V-79, Strain/Indicator: V-79/OUABAIN, Metabolic Activation: NONE): inactive; negative"
Oc1ccc(Nc2ccc3ccccc3c2)cc1,inactive; negative,inactive; negative,inactive; negative,inactive; negative,inactive; negative,inactive; negative,inactive; negative,inactive; negative,inactive; negative,inactive; negative,inactive; negative,inactive; negative,inactive; negative,inactive; negative,inactive; negative,inactive; negative,inactive; negative,–,"mutagenic call (Test System: AMES SALMONELLA TYPHIMURIUM, Strain/Indicator: TA97, Metabolic Activation: HAMSTER, LIVER, S-9, AROCLOR 1254 (10%), Method: PREINCUBATION): inactive; negative; mutagenic call (Test System: AMES SALMONELLA TYPHIMURIUM, Strain/Indicator: TA97, Metabolic Activation: HAMSTER, LIVER, S-9, AROCLOR 1254 (30%), Method: PREINCUBATION): inactive; negative; mutagenic call (Test System: AMES SALMONELLA TYPHIMURIUM, Strain/Indicator: TA97, Metabolic Activation: RAT, LIVER, S-9, AROCLOR 1254 (10%), Method: PREINCUBATION): inactive; negative; mutagenic call (Test System: AMES SALMONELLA TYPHIMURIUM, Strain/Indicator: TA97, Metabolic Activation: RAT, LIVER, S-9, AROCLOR 1254 (30%), Method: PREINCUBATION): inactive; negative; mutagenic call (Test System: AMES SALMONELLA TYPHIMURIUM, Strain/Indicator: TA1537, Metabolic Activation: HAMSTER, LIVER, S-9, AROCLOR 1254 (30%), Method: PREINCUBATION): inactive; negative; mutagenic call (Test System: AMES SALMONELLA TYPHIMURIUM, Strain/Indicator: TA1537, Metabolic Activation: RAT, LIVER, S-9, AROCLOR 1254 (30%), Method: PREINCUBATION): inactive; negative"
CS(=O)(=O)Nc1ccc(Nc2c3ccccc3nc3ccccc23)cc1,–,–,–,–,–,–,–,–,–,–,–,–,–,–,–,–,–,active; positive,–
[N-]=[N+]=Nc1ccc2c(Nc3ccc(NS(=O)(=O)CCCN)cc3)c3cc(N=[N+]=[N-])ccc3nc2c1,–,–,–,–,–,–,–,–,–,–,–,–,–,–,–,–,–,active; positive,–
c1cc2ccc3cc4c(c5ccc(c1)c2c35)[C@H]1O[C@H]1CC4,–,–,–,–,–,–,–,–,–,–,–,–,–,–,–,–,–,–,"mutagenic call (Test System: CHINESE HAMSTER V-79, Strain/Indicator: V-79/8-AZAGUANINE, Metabolic Activation: NONE, Method: STANDARD PLATE): active; positive"
CC1(c2ccccc2)C(=O)c2ccccc2N1[O] (stereo not given),–,–,–,–,–,–,–,–,–,–,–,–,–,–,–,–,–,–,"mutagenic call (Test System: AMES SALMONELLA TYPHIMURIUM, Strain/Indicator: TA98, Metabolic Activation: NONE, Method: STANDARD PLATE): inactive; negative; mutagenic call (Test System: AMES SALMONELLA TYPHIMURIUM, Strain/Indicator: TA100, Metabolic Activation: NONE, Method: STANDARD PLATE): inactive; negative; mutagenic call (Test System: AMES SALMONELLA TYPHIMURIUM, Strain/Indicator: TA102, Metabolic Activation: NONE, Method: STANDARD PLATE): inactive; negative"
